Results taken from paper PMC7221482 (Neurochemistry international, 2019).
Structures can show the parent of a compound that is named as a salt. Where two headings read alike, the source gives them in different places.

Assays:
[1] = molecular target: T1, hα3β4 AChRs ([3H]imipramine sites) (Homo sapiens, UniProt P30926+P32297); settings: ref Arias et al., cited from earlier work
rα9α10 AChRs = rα9α10 AChRs (Rattus norvegicus, UniProt P43144+Q9JLB5); assay type: cell-based
[2] = molecular target: T2, hα4β2 AChRs ([3H]imipramine sites) (Homo sapiens, UniProt P17787+P43681); settings: read-out: Kd (dissociation constant), ref Arias et al., 2010b; cited from earlier work
hα3β4 AChRs = hα3β4 AChRs (Homo sapiens, UniProt P30926+P32297); assay type: cell-based
hα4β2 AChRs = hα4β2 AChRs (Homo sapiens, UniProt P17787+P43681); assay type: cell-based
hα7 AChRs = hα7 AChRs (Homo sapiens, UniProt P36544); assay type: cell-based
habenular mα3β4* AChRs = habenular mα3β4* AChRs (Mus musculus, UniProt Q8R493+Q8R4G9); assay: Patch-clamp recordings of ACh-evoked currents from MHb; assay type: cell-based
[3] = molecular target: T1, hα3β4 AChRs ([3H]imipramine sites); assay: [3H]Imipramine competition binding to hα3β4 AChR-containing membranes
[4] = molecular target: T2, hα4β2 AChRs ([3H]imipramine sites); assay: [3H]Imipramine competition binding to hα4β2 AChR-containing membranes
[5] = desensitized state, [3H]imipramine competition

In the case of `CNCCC(Oc1ccc(C(F)(F)F)cc1)c1ccccc1` (centres unmarked) [fluoxetine], the Ki ([1]; hα3β4 AChR, [3H]imipramine sites, 2010a) is listed as 4.8 ± 0.5 µM.

With `CC(=O)OCC[N+](C)(C)C` [ACh, acetylcholine] the “nH of ACh” value (rα9α10 AChRs; No (±)-citalopram) was 0.98 ± 0.2 and the “nH of ACh” value (rα9α10 AChRs; in the presence of 8.0 μM (±)-citalopram) was 1.11 ± 0.6.

For `CN(C)CCCN1c2ccccc2CCc2ccccc21` [[^3H]imipramine, [^3H]Imipramine hydrochloride], the Kd ([1]; read-out: Kd (dissociation constant), hα3β4 AChRs, 2010c) is given as 0.41 µM and the Kd [2] is given as 0.83 µM.

In the case of `CN(C)CCCC1(c2ccc(F)cc2)OCc2cc(C#N)ccc21` (racemic) [(±)-citalopram, 1-[3-(dimethylamino)propyl]-1-(4-fluorophenyl)-1,3-dihydro-5-isobenzofurancarbonitrile], the IC50 (hα3β4 AChRs) is reported as 5.1 ± 1.3 µM, the “nH (Hill coefficient)” value (hα3β4 AChRs; inhibition of (±)-epibatidine-induced Ca2+ influx, HEK293-hα3β4 cells) is reported as 1.00 ± 0.10 and the IC50 (hα4β2 AChRs) is reported as 19.1 ± 4.2 µM. For the same compound, the “nH (Hill coefficient)” value (hα4β2 AChRs; inhibition of (±)-epibatidine-induced Ca2+ influx, HEK293-hα4β2 cells) was 1.24 ± 0.19, the IC50 (hα7 AChRs) was 18.8 ± 1.1 µM and the “nH (Hill coefficient)” value (hα7 AChRs; inhibition of (±)-epibatidine-induced Ca2+ influx, GH3-hα7 cells) was 1.44 ± 0.22. For the same compound, the IC50 (rα9α10 AChRs) was 7.5 ± 0.9 µM, the “increase of the ACh EC50 value” (rα9α10 AChRs; 8.0 μM (±)-citalopram, p = 0.0001) was 7.5 fold and the “nH (Hill coefficient)” value (rα9α10 AChRs; inhibition of 10 μM ACh-evoked rα9α10 currents, Xenopus oocytes) was 1.35 ± 0.10. It also gave an inhibition at 10 µM (rα9α10 AChRs; read-out: inhibition of ACh responses, 10 μM (±)-citalopram, 10 μM ACh, +40 mV) of 43.3 ± 4.9%, an inhibition at 10 µM (rα9α10 AChRs; read-out: inhibition of ACh responses, 10 μM (±)-citalopram, 10 μM ACh, −90 mV) of 46 ± 4.7% and an IC50 (habenular mα3β4* AChRs; IC50(0), ligand concentration to produce 50% inhibition at 0 mV, one-site blocking model, Eq. (1)) of 92 µM. For the same compound, the IC50 (habenular mα3β4* AChRs; IC50, inhibition of 100 μM ACh puff-evoked currents, MHb (VI) neurons) was 7.6 ± 1 µM, the Ki [3] was 1.8 ± 0.1 µM and the “nH (Hill coefficient)” value [3, 5] was 0.74 ± 0.04. The Ki [4] was 4.1 ± 0.3 µM, the Ki ([4]; Ki (binding affinity), resting state, in the presence of 0.1 κ-bungarotoxin) was 5.9 ± 0.4 µM and the “nH (Hill coefficient)” value [4, 5] was 0.72 ± 0.03.
